Test results taken from ChEMBL document CHEMBL1909046, “DrugMatrix in vitro pharmacology data”.

Legend:
[1] = target: 5-hydroxytryptamine receptor 4 (Cavia porcellus, UniProt O70528); format: cell membranes, Dunkin-Hartley, Striatum, Membrane; also: in other assays of this panel Not Active means under 50% inhibition at 10 µM
[2] = target: T1, C-C chemokine receptor type 4 (Homo sapiens, UniProt P51679); format: cell membranes, Membrane; settings: chem-1; also: in other assays of this panel Not Active means under 50% inhibition at 10 µM
T1 sequence (P51679 whole entry): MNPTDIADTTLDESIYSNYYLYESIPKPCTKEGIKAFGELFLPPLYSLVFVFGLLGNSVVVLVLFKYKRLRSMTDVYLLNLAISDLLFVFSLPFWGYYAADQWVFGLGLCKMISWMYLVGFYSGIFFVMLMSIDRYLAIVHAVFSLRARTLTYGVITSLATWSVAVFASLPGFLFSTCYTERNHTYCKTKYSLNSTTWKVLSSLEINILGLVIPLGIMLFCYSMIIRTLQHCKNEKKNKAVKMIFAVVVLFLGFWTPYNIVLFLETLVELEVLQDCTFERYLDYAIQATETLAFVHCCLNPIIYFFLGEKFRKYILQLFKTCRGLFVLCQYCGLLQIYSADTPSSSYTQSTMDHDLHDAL

[3] = target: C-C chemokine receptor type 5 (Homo sapiens, UniProt P51681); format: cell membranes, HEK293, Membrane; settings: hek293; also: in other assays of this panel Not Active means under 50% inhibition at 10 µM
[4] = target: Prostaglandin G/H synthase 1 (Homo sapiens, UniProt P23219); assay: biochemical; format: tissue-based, Platelet;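 also: inhibition of COX-1 enzyme activity, with arachidonic acid supplied as substrate; in other assays of this panel Not Active means under 50% inhibition at 10 µM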
[5] = DRUGMATRIX: Glutamate, NMDA, Phencyclidine radioligand binding (ligand: [3H] TCP); format: cell membranes, Rattus norvegicus, Wistar, Cerebral cortex, Membrane; settings: Not Active = under 50% inhibition at 10 µM
Leukotriene C4 synthase = target: T2, Leukotriene C4 synthase (Cavia porcellus, UniProt A6XA80); format: tissue-based, Lung
T2 sequence (A6XA80 whole entry): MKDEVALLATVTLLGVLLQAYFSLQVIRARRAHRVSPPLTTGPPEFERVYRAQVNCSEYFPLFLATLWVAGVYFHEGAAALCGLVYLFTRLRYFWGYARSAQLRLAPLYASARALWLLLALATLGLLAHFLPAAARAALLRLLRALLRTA

[6] = DRUGMATRIX: Phorbol Ester radioligand binding (ligand: [3H] PDBu); format: cell membranes, Mus musculus, ICR, Brain, Membrane; settings: Not Active = under 50% inhibition at 10 µM
[7] = DRUGMATRIX: Phosphodiesterase PDE3 enzyme inhibition (substrate: [3H]cAMP + cAMP); format: tissue-based, Homo sapiens; settings: platelet; Not Active = under 50% inhibition at 10 µM
Neutrophil elastase = target: T3, Neutrophil elastase (Homo sapiens, UniProt P08246); format: tissue-based
T3 sequence (P08246 whole entry): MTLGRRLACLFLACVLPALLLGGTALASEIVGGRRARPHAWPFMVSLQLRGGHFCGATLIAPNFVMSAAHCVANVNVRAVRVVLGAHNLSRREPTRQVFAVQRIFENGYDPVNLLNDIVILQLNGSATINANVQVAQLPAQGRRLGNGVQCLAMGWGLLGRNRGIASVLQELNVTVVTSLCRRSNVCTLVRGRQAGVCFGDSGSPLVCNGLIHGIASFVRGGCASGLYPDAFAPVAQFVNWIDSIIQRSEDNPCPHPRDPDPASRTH

Adenosine receptor A1 = target: T4, Adenosine receptor A1 (Homo sapiens, UniProt P30542); format: cell membranes, Membrane; settings: cho
T4 sequence (P30542 whole entry): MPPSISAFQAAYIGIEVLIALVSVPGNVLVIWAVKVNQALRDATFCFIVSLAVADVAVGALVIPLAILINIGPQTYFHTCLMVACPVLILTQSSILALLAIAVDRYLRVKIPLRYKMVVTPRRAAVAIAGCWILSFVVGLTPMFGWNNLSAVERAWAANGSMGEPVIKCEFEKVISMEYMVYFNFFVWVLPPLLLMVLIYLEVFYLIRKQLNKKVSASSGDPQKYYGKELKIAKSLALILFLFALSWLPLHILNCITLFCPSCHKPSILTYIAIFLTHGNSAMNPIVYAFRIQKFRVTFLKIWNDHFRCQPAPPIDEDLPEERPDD

Cytochrome P450 2C19 = Cytochrome P450 2C19 (Homo sapiens, UniProt P33261); settings: bti-tn-5b1-4; also: in other assays of this panel Not Active means under 50% inhibition at 10 µM
Glucocorticoid receptor = target: T5, Glucocorticoid receptor (Homo sapiens, UniProt P04150); settings: hela s3; also: in other assays of this panel Not Active means under 50% inhibition at 10 µM
T5 sequence (P04150 whole entry): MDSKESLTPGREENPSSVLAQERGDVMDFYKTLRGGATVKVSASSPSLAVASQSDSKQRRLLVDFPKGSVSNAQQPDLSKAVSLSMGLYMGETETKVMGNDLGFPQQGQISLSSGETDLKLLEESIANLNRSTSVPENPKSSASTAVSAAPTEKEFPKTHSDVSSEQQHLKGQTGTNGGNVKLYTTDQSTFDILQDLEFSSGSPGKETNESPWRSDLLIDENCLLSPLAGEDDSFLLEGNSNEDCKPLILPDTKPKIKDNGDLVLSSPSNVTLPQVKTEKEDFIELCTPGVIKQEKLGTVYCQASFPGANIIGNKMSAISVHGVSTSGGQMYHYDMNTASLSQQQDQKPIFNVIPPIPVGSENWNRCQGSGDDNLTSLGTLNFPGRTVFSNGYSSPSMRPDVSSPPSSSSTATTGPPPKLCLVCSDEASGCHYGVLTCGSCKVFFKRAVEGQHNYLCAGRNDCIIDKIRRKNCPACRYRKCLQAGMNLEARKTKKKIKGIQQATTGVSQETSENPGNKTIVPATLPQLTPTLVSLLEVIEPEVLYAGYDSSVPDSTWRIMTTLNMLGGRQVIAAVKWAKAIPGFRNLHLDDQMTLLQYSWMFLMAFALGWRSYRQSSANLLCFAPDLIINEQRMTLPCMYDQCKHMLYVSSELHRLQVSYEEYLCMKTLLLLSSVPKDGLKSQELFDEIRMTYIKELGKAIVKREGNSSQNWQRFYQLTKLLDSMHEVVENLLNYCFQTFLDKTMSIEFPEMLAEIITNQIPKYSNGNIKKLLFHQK

Chain of Prostaglandin G/H synthase 1 (P23219 whole entry): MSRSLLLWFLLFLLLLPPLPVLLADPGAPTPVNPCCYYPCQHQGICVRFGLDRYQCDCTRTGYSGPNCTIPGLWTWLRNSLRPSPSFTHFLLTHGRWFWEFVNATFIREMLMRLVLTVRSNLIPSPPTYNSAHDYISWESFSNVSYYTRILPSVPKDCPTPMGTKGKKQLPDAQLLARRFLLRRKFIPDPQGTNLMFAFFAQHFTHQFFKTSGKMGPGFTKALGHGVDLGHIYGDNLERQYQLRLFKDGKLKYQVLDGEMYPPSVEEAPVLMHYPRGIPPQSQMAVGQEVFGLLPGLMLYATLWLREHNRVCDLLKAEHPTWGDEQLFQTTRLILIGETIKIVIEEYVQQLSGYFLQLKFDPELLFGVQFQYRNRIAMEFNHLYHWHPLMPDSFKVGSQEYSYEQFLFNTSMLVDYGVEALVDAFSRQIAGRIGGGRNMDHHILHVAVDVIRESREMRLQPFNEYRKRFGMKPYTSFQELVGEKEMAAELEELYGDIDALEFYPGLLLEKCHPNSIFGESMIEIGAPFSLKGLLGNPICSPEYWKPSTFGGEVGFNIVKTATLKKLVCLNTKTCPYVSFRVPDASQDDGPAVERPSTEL
Chain of C-C chemokine receptor type 5 (P51681 whole entry): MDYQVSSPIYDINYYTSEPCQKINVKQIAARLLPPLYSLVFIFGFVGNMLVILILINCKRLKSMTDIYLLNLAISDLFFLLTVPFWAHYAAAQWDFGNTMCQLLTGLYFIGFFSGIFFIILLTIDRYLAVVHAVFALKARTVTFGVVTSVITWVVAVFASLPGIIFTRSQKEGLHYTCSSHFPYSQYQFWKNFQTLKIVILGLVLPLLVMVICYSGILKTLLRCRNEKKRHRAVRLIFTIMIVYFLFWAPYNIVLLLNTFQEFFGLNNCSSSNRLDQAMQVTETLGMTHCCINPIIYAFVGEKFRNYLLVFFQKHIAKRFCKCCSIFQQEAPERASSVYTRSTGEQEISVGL
Chain of 5-hydroxytryptamine receptor 4 (O70528 whole entry): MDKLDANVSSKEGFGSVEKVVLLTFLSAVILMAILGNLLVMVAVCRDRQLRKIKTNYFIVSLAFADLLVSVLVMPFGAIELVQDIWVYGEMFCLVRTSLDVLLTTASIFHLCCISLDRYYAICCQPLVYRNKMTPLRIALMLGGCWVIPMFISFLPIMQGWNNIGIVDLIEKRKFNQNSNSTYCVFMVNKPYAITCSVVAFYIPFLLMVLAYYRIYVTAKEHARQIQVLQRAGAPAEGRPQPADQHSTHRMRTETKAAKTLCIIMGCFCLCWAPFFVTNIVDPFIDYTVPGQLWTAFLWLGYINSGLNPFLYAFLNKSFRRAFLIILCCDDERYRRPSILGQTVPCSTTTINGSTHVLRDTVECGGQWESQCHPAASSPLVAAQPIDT
Chain of Cytochrome P450 2C19 (P33261 whole entry): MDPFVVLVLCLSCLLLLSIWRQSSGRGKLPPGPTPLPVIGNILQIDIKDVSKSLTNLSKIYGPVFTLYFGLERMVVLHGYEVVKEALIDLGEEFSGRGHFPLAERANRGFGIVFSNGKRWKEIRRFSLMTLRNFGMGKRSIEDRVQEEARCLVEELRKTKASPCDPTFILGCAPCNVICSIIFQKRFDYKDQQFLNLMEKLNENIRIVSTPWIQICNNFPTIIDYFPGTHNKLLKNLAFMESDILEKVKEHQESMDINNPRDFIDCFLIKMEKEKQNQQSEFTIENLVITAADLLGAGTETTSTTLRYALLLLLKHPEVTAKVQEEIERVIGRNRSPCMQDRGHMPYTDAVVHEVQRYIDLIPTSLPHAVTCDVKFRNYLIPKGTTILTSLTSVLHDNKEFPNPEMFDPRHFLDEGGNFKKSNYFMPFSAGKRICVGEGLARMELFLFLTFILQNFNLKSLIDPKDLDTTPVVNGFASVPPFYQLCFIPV

| Structure (SMILES) | IC50 [1] | IC50 [2] | IC50 [3] | IC50 ([4]; platelet) | IC50 [5] | Ki [5] | IC50 (Leukotriene C4 synthase) | IC50 [6] | Ki [6] | IC50 [7] | Ki [7] | IC50 (Neutrophil elastase) | IC50 (Adenosine receptor A1) | IC50 (Cytochrome P450 2C19) | Ki (Cytochrome P450 2C19) | IC50 (Glucocorticoid receptor) | IC50 ([4]; read-out: IC50) [nM] |
| --- | --- | --- | --- | --- | --- | --- | --- | --- | --- | --- | --- | --- | --- | --- | --- | --- | --- |
| [H]/N=C(/N)N[C@H]1[C@H](O)[C@@H](O)[C@H](O[C@@H]2O[C@@H](C)[C@](O)(C=O)[C@H]2O[C@@H]2O[C@@H](CO)[C@H](O)[C@@H](O)[C@@H]2NC)[C@@H](N/C(N)=N\[H])[C@@H]1O [STREPTOMYCIN] | Not Active | Not Active | Not Active | Not Active | Not Active | Not Active | Not Active | Not Active | Not Active | Not Active | Not Active | Not Active | Not Active | Not Active | Not Active | Not Active |  |
| COc1cc(NS(=O)(=O)c2ccc(N)cc2)nc(OC)n1 [SULFADIMETHOXINE] | Not Active | Not Active | Not Active | Not Active | Not Active | Not Active | Not Active | Not Active | Not Active | Not Active | Not Active | Not Active | Not Active | Not Active | Not Active | Not Active |  |
| Cc1cc(C)nc(NS(=O)(=O)c2ccc(N)cc2)n1 [SULFAMETHAZINE] | Not Active | Not Active | Not Active | Not Active | Not Active | Not Active | Not Active | Not Active | Not Active | Not Active | Not Active | Not Active | Not Active | Not Active | Not Active | Not Active |  |
| C[C@]1(Cn2ccnn2)[C@H](C(=O)O)N2C(=O)C[C@H]2S1(=O)=O [TAZOBACTAM] | Not Active | Not Active | Not Active | Not Active | Not Active | Not Active | Not Active | Not Active | Not Active | Not Active | Not Active | Not Active | Not Active | Not Active | Not Active | Not Active |  |
| CN1C(C(=O)Nc2ccccn2)=C(O)c2sccc2S1(=O)=O [TENOXICAM] | Not Active | Not Active | Not Active |  | Not Active | Not Active | Not Active | Not Active | Not Active | Not Active | Not Active | Not Active | Not Active | Not Active | Not Active | Not Active | 1140 |
